Assay results published in patent US20200206198A1, “CFTR CHANNEL ACTIVATOR FOR USE IN THE TREATMENT AND/OR PREVENTION OF GLUTEN SENSITIVITY CONDITIONS” (priority 2017, published 2020).
Where a SMILES comes first, the peptide text is derived from it. [ ]: non-standard residue; d: D form. The star is where a group is joined. DON = [N-]=[N+]=CC(=O)CC[C@H](N)C(=O)O; Cbz = O=C(OCc1ccccc1)*

Assays:
CFTR [1] = biological target: T1, CFTR (Homo sapiens, UniProt P13569); experiment: CFTR channel function in intestinal epithelial cells (forskolin-induced Isc in Ussing chambers; SPQ iodide efflux); type: cell-based; settings: 20 μg/ml peptide; intestinal epithelial cells (Caco-2, T84)
T1 construct: Immunoprecipitations of endogenous proteins were performed on 500 μg of lysates from Caco-2 cells; host or cells: Caco-2, T84
Experimental: Human colon adenocarcinoma-derived Caco-2 and T84 cells (Barone, M. V. et al. 2014; Luciani, A. et al. 2010) were obtained from the ATCC. Cells were maintained in T25 flask in Modified Eagle Medium (MEM) for Caco-2, or Ham's F12+DMEM (1:1) for T84, supplemented with 10% fetal bovine serum (FBS), 2 mM Glutamine+1% Non Essential Amino Acids (NEAA) and the antibiotics penicillin\streptomycin (100 units/ml) (all reagents from Lonza). Caco-2 cells were grown in Transwells (Corning, 3470 or 3460) under the normal condition. Briefly, 8×10^4 or 5×10^5 cells were seeded in 6.5-mm diameter or 12-mm diameter, respectively, and grown until the RT reached 800 to 1,200 Ω·cm^2. Transwells with a pore size of 0.4 μm were used. Medium in both the apical and baso lateral chambers was changed every other day. Cells were treated with 20 μg/ml of either with the α-gliadin peptide comprising the P31-43 amino acid sequence of α-gliadin LGQQQPFPPQQPY (SEQ ID 1) (below referred to as P31-43), which is known to induce an enterocyte stress response (Meresse, B. et al.2009; Barone, M. V. et al. 2014; Luciani, A. et al. 2010), the T-cell activating α-gliadin peptide comprising the P57-68 amino acid sequence of α-gliadin (QLQPFPQPQLPY SEQ ID 2)) (below referred to as P57-68) (Maiuri, L., et al. 2003; Meresse, B. et al.2009; 30 Barone, M. V. et al. 2014), or the scrambled GAVAAVGVVAGA (SEQ ID 3) control peptide (below referred to as PGAV), or with different modified P31-43, either biotin-tagged or not, for different time points (from 1 h short challenge up to 24 h). Cells were also treated with 50 or 100 5 μg/ml of P57-68 or PGAV peptides for 3 h.
Caco-2 or T84 cells were also treated with: CFTR potentiators VX-770 (Ivacaftor) (10 μM) or VX-532 (20 μM) (Selleck chemicals) or Genistein (10 μM) (Verkman, A. S. et al. 2005; Jih, K. Y. et al. 2013) (Sigma-Aldrich) or in presence or absence of CFTR inhibitor172 (CFTRinh172, 20 μM).
Human colon adenocarcinoma-derived Caco-2 and T84 cells were obtained from the ATCC. Cells were maintained in T25 flask in Modified Eagle Medium (MEM) for Caco-2, or Ham's F12+DMEM (1:1) for T84, supplemented with 10% fetal bovine serum (FBS), 2 mM Glutamine+1% Non Essential Amino Acids (NEAA) and the antibiotics penicillin\streptomycin (100 units/ml) (all reagents from Lonza) (Luciani, A., et al. 2010. Cells were grown in Transwells (Corning, 3470 or 3460) under the normal condition (Luciani, A., et al. 2012). Briefly, 8×10^4 or 5×10^5 cells were seeded in 6.5-mm diameter or 12-mm diameter, respectively, and grown until the RT reached 800 to 1,200 Ω·cm2. Transwells with a pore size of 0.4 μm were used. Medium in both the apical and basolateral chambers was changed every other day. […]

[2] = tested on: recombinant human NBD1 (rhNBD1); experiment: Surface plasmon resonance peptide-protein interaction; type: binding; settings: rhNBD1 immobilized on chip, different peptide concentrations
Experimental: Peptide-protein interactions were studied using a Biacore™ T100 (GE Healthcare) instrument. hrNBD1 domain or the indicated biotinylated peptides were immobilized by thiol coupling on a CMS (series S) sensor chip to a final density of 2000 resonance units (RU) or by biotin-streptavidin capture on a SA (series S) sensor chip to a final density of 250 RU, respectively. A flow cell with no immobilized protein or peptide was used as control. Binding analysis was carried out at 20° C. in a running buffer consisting of 10 mM HEPES, pH 7.4, 150 mM NaCl, 0.05% (v/v) Tween-20, 2 mM ATP, 5 mM MgCl2, 1 mM DTT applying a flow rate of 20 μl/min. For each experiment a Biacore™ method program was used. It included a series of three start up injections (running buffer), zero control (running buffer) and different concentrations of ligand. […] Each sensorgram (time-course of the surface plasmon resonance signal) was corrected for the response obtained in the control flow cell and normalized to baseline. Data were analysed using the 2.0.3 BIAevaluation software (GE Healthcare). At least three independent experiments for each analysis were performed.
FIG. 2: a, Protein-Protein docking and Molecular Dynamics of P31-43 (violet) bound to NBD1 (orange). Left side: general view of P31-43 and NBD1 interaction. Upper right: detailed interaction pattern, highlighting the most important amino acids. Lower right: in silico NBD1/P31-43 complex compared to the original crystallographic positions of Tip 401 and ATP. b, Graphical view of the in silico sampling percentage of P31-43 against NBD1/NBD2 (left 10 panel), and of P31-43/4QA (4QA) against NBD1 (right panel). c-d, Surface plasmon resonance (SPR) analysis of rhNBD1 binding to P31-43 and P57-68 biotinylated peptides immobilized on SA sensor chip (c) and of increasing concentrations of P31-43 and P57-68 peptides 15 on rhNBD1 covalently bound to the CMS sensor chip (d).

CFTR [3] = biological target: T1, CFTR; experiment: Co-immunoprecipitation of biotinylated peptides with CFTR in Caco-2 cells; type: cell-based; settings: 1 h with biotinylated peptides
Experimental: Human colon adenocarcinoma-derived Caco-2 and T84 cells were obtained from the ATCC. Cells were maintained in T25 flask in Modified Eagle Medium (MEM) for Caco-2, or Ham's F12+DMEM (1:1) for T84, supplemented with 10% fetal bovine serum (FBS), 2 mM Glutamine+1% Non Essential Amino Acids (NEAA) and the antibiotics penicillin\streptomycin (100 units/ml) (all reagents from Lonza) (Luciani, A., et al. 2010. Cells were grown in Transwells (Corning, 3470 or 3460) under the normal condition (Luciani, A., et al. 2012). Briefly, 8×10^4 or 5×10^5 cells were seeded in 6.5-mm diameter or 12-mm diameter, respectively, and grown until the RT reached 800 to 1,200 Ω·cm2. Transwells with a pore size of 0.4 μm were used. Medium in both the apical and basolateral chambers was changed every other day. […] Cells were also treated with 50 or 100 μg/ml of P57-68 or PGAV peptides for 3 h. Caco-2 or T84 cells were also treated with: CFTR potentiators VX-770 (10 μM) or VX-532 (20 μM) (Selleck chemicals) or Genistein (10 μM) (Sigma-Aldrich) or in presence or absence of CFTR inhibitor172 (CFTRinh172, 20 μM) or 3-methyl-adenine (3-MA, 20 μM) (Calbiochem), Z-DON (20 nM, Zedira) or BAPTA-AM (10 μM, Calbiochem).
The separation of endosomal fractions was performed as described^9 from treated and untreated cells. Protein of endosomal fraction were resolved by SDS-Page and blotted with primary antibodies against Rab-5(Abcam 18211) 1:500, Rab-7(Abcam 77993) 1:500, EEA-1 (Abcam 2900) 1:500, TG2 or CFTR. EEA-1 was used as early endosome marker. For detection of complex with biotnylated-P31-43, the beads were resolved in non-reducing and non-denaturating conditions, and then blotted with Streptavidin-HRP (Sigma S2438) 1:3000 or anti-biotin (Abcam ab2103) 1:2500.

TG2 = biological target: T2, TG2 (Homo sapiens, UniProt P21980); experiment: TG2 interaction and TG2 activity in Caco-2 cells; type: cell-based; settings: Caco-2 cells
T2 construct: Immunoprecipitations of endogenous proteins were performed on 500 μg of lysates from Caco-2 cells; host or cells: Caco-2
T2 sequence (P21980 1-687): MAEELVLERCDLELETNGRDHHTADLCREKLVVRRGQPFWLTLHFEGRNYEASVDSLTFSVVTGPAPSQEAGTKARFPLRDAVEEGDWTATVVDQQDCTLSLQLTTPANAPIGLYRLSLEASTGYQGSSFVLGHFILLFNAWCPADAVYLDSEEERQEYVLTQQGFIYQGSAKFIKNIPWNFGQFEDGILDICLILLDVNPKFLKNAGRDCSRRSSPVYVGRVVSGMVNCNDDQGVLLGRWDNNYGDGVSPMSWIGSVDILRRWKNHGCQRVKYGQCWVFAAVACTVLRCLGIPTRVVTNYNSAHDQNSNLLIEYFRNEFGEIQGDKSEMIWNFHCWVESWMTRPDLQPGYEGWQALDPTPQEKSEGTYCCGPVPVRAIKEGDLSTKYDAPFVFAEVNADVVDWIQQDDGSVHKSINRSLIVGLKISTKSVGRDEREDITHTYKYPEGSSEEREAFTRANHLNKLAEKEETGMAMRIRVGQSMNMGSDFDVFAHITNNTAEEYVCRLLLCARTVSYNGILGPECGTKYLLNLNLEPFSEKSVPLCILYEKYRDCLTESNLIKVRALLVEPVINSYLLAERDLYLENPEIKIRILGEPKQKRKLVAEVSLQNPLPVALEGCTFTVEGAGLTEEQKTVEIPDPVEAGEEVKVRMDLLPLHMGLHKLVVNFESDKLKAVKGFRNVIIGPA
Experimental: Human colon adenocarcinoma-derived Caco-2 and T84 cells were obtained from the ATCC. Cells were maintained in T25 flask in Modified Eagle Medium (MEM) for Caco-2, or Ham's F12+DMEM (1:1) for T84, supplemented with 10% fetal bovine serum (FBS), 2 mM Glutamine+1% Non Essential Amino Acids (NEAA) and the antibiotics penicillin\streptomycin (100 units/ml) (all reagents from Lonza) (Luciani, A., et al. 2010. Cells were grown in Transwells (Corning, 3470 or 3460) under the normal condition (Luciani, A., et al. 2012). Briefly, 8×10^4 or 5×10^5 cells were seeded in 6.5-mm diameter or 12-mm diameter, respectively, and grown until the RT reached 800 to 1,200 Ω·cm2. Transwells with a pore size of 0.4 μm were used. Medium in both the apical and basolateral chambers was changed every other day. Cells were treated with 20 μg/ml of either α-gliadin peptide P31-43 or […] or scrambled PGAV or modified P31-43 either biotin-tagged or not, for different time point (from 1 h short challenge up to 24 h). Cells were also treated with 50 or 100 μg/ml of P57-68 or PGAV peptides for 3 h. Caco-2 or T84 cells were also treated with: CFTR potentiators VX-770 (10 μM) or VX-532 (20 μM) (Selleck chemicals) or Genistein (10 μM) (Sigma-Aldrich) or in presence or absence of CFTR inhibitor172 (CFTRinh172, 20 μM) or 3-methyl-adenine (3-MA, 20 μM) (Calbiochem), Z-DON (20 nM, Zedira) or BAPTA-AM (10 μM, Calbiochem).
The whole lysate or membrane fraction proteins of cell lines and mice intestine homogenates were obtained from treated and untreated cells or mice as described. The equal amount of protein were resolved by SDS-PAGE gel and blotted with antibodies against: SQSTM1, (Sigma Aldrich, 108k4767) 1:1000, PPARγ (Santa Cruz Biotechnology, sc7273) 1:500, BECN1 (Abcam, ab58878) 1:1000, CFTR clone M3A7 (Abcam, ab4067) 1:500, phospho-ERK1/2 (php42/44, Cell Signaling Technology, #91101) 1:1000, UVRAG (Santa Cruz Biotechnology sc8215) 1:1000, NHERF-1 (BD, 611161) 1:1000, EZRIN (BD, 610603) 1:1000, hVps34 (SigmaV9764) 1:300, biotin (Abcam, ab1227) 1:2000, PKAr2a (BD, 610625) 1:500, Ubiquitin (Cell Signaling clone P4D1, #3936) 1:1000, CHIP (Calbiochem PC711) 1:500, Caspase-1 p10 (M-20) (Santa Cruz Biotechnology, sc-514) 1:200, NLRP3 (Abcam, ab4207), 1:500, IDO1 (monoclonal; cv152) 1:1000^[80], used as primary antibodies. Normalization was performed by probing the membrane with anti-β-actin (Cell Signaling, #4970) 1:1000, anti-Gapdh (Sigma-Aldrich, G8795) 1:1000 and anti-flottilin (Abcam ab15148) 1:1000 antibodies. Immunoprecipitations of endogenous proteins were performed on 500 μg of lysates from Caco-2 cells. The proteins were incubated for 12-18 h at 4° C. with 10 ug\ml of specific antibody followed by the addition of Protein A/G-agarose beads for 4 h at 4° C. The beads were then washed three times with lysis buffer and Laemmli's sample buffer was added to the samples. The membranes were then blotted with: CFTR clone CF3 (Abcam, ab2784) 1:1000, TG2 (clone CUB7402; NeoMarkers) 1:1000, CHIP (Calbiochem PC711) 1:500, Ubiquitin (Cell Signaling clone P4D1 3936), isopeptide (Abcam 422) 1:1000, PKAR2 (BD 610625) 1:500.
For detection of complex with biotnylated-P31-43 or immune-complex of glutamime-lysine bonds, the beads were resolved in non-reducing and non-denaturating conditions, and then blotted with Streptavidin-HRP (Sigma 52438) 1:3000 or anti-biotin (Abcam ab2103) 1:2500 and anti-isopeptide (Abcam 422) 1:1000.
TG2 enzymatic activity in Caco-2, treated as described above, was detected: 1) by incubating unfixed sections with biotin-mono-dansylcadaverine (MDC, 10 mM, Molecular Probe) for 1 h at room temperature and then stained with Alexa-fluor488-Streptavidin, as previously described (JI2008/2009) or 2) or by incorporation of 5(biotinamido)pentylamines (BAP) into protein substrates. For BAP-incorporation, 2 mM BAP (Soltec Ventures, B110) were directly added into the medium together with the indicated treatments. […]

T1 sequence (P13569 whole entry): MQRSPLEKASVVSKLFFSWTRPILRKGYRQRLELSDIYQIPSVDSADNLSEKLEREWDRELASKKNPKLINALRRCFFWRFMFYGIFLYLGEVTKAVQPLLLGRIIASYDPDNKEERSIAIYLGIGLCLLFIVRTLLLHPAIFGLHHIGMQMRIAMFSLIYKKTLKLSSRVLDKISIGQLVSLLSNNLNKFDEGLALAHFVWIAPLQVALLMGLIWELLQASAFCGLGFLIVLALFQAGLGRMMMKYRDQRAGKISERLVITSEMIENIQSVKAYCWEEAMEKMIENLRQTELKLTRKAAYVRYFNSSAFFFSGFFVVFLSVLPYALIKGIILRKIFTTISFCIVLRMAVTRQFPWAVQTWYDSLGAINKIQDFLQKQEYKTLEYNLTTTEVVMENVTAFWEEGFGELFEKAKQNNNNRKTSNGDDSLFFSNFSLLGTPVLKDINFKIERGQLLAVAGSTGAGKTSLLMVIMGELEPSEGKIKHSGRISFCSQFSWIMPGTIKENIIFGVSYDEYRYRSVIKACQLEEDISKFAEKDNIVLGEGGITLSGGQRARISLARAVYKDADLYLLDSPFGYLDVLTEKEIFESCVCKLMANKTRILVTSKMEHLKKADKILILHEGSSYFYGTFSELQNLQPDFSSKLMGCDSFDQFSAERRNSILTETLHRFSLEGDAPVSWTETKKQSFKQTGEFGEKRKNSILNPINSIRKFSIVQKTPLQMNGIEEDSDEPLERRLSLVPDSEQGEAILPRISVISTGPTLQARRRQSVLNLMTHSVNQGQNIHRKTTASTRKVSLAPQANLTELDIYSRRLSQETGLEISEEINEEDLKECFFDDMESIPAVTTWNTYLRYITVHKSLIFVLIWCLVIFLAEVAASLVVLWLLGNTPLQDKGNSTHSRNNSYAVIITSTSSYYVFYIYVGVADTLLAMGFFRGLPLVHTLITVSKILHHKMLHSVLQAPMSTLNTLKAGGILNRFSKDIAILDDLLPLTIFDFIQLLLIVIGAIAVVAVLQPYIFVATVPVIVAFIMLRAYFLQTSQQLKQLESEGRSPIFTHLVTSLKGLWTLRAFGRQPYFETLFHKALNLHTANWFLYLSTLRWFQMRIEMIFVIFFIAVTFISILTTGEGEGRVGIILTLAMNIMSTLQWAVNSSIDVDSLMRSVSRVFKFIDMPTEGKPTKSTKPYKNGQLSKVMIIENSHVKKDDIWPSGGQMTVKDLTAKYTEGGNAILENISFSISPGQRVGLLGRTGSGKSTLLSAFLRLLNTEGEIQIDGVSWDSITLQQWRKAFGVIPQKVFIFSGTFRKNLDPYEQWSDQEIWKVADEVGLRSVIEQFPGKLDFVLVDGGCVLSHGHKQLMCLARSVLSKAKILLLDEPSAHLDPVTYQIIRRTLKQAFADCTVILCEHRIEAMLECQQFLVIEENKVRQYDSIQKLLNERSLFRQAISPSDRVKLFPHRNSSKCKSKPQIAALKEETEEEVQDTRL

Compound	reduction of CFTR channel function in response to forskolin (CFTR [1])	SPR signal on immobilized rhNBD1 [2]	interaction (co-immunoprecipitation) with CFTR (CFTR [3])	interaction (co-immunoprecipitation) with CFTR (CFTR [3]; listed as Q4A)	effect on P31-43-induced interaction of TG2 and CFTR (TG2)
4QA: P31-43 with glutamines at residues 4, 5, 10 and 11 substituted with alanines, LGQAAPFPPAAPY (SEQ ID 4) (P31-43 sequence of alpha gliadin with glutamine residues at positions 4, 5, 10 and 11 substituted with alanines)	failed to interact with CFTR and to inhibit its function	failed to interact with NBD1	failed to interact with CFTR	did not co-immunoprecipitate with CFTR	
CC(=O)OCOC(=O)CN(CC(=O)OCOC(C)=O)c1ccccc1OCCOc1ccccc1N(CC(=O)OCOC(C)=O)CC(=O)OCOC(C)=O [BAPTA-AM]					prevented
COC(=O)[C@H](CC(C)C)NC(=O)[C@@H]1CCCN1C(=O)[C@@H](NC(=O)[C@H](CCC(=O)C=[N+]=[N-])NC(=O)OCc1ccccc1)C(C)C [Z-DON] (Cbz-[DON]VPL-OMe)					prevented
P57-68: T-cell activating α-gliadin peptide QLQPFPQPQLPY (SEQ ID 2) (P57-68 sequence of alpha-gliadin)		failed to induce any signal			
